From patent US20250163150A1, “COMBINATION THERAPIES COMPRISING A KRAS INHIBITOR FOR THE TREATMENT OF CANCER” (I-Mab Biopharma US Limited, priority 2022, published 2025)

B1: TJC4: anti-CD47 antibody with VH SEQ ID NO: 1, VL SEQ ID NO: 2 and human IgG4 Fc region comprising S228P substitution (antibody, V domains shown)
VH: EVQLVESGGGLVKPGGSLRLSCAASGLTFERAWMNWVRQAPGKGLEWVGRIKRKTDGETTDYAAPVKGRFSISRDDSKNTLYLQMNSLKTEDTAVYYCAGSNRAFDIWGQGTMVTVSS
VL: DIVMTQSPDSLAVSLGERATINCKSSQSVLYAGNNRNYLAWYQQKPGQPPKLLINQASTRASGVPDRFSGSGSGTEFTLIISSLQAEDVAIYYCQQYYTPPLAFGGGTKLEIK
modifications: human IgG4 Fc with S228P, no entry

Experiments:
[1] = tested on: human NCI-H358 non-small cell lung cancer (NSCLC) tumor xenografts (KRAS G12C); assay: In vivo anti-tumor efficacy in mice bearing NCI-H358 NSCLC tumor xenografts; design: species or system CB17 SCID mice; settings: 1 mg/kg QD (AMG-510 p.o., TJC4 i.p.), tumor size over 15 days, FIG. 1
Description: The anti-tumor efficacy of anti-CD47 antibody TJC4 in combination with the KRAS G12C inhibitor AMG-510 was assessed in mice bearing human NCI-H358 non-small cell lung cancer (NSCLC) tumor xenografts. The NCI-H358 cell line, which was established from a chemotherapy-naïve NSCLC tumor, harbors a KRAS G12C mutation. TJC4 is an exemplary anti-CD47 antibody that comprises a VH that comprises SEQ ID NO: 1, a VL that comprises SEQ ID NO: 2, and a human IgG4 Fe region that comprises an S228P substitution (EU numbering). AMG-510 is also known as Sotorasib. KRAS G12C mutations, which are common in NSCLC, lead to constitutive activation of the tumor growth-promoting RAS/MAPK signaling pathway. […]
Each animal's tumor size was measured three times per week for 15 days. Tumor size was calculated as V=0.5L×W^2, where L and W indicate long and short diameters of the tumor, respectively. Anti-tumor efficacy of the drugs was also analyzed by TGI % (percentage of tumor growth inhibition). TGI % was calculated as: […]
where TRTV is treatment group RTV, and CRTV is control group RTV. RTV=VN/V1, where V1 is the mean tumor volume measured on Day 1 of administration, and VN is the mean tumor volume measured on Day N of administration.
The synergy of the combination of TJC4 and AMG-510 was calculated as: […]

[2] = tested on: NCI-H358 human NSCLC tumor cells (KRAS G12C); assay: In vitro phagocytosis of NCI-H358 tumor cells by M0 macrophages (IncuCyte pHrodo); assay type: cell-based; settings: AMG 510 pre-treatment 0.1, 1 or 10 μm 24 hours, then M0 macrophage 1:1 and 1 μg/ml TJC4 3-6 hours, FIG. 4A-4C
Description: The following experiments were performed to assess the effects of anti-CD47 antibody TJC4 in combination with the KRAS G12C inhibitor AMG-510 on the in vitro phagocytosis of NCI-H358 human NSCLC tumor cells. As discussed in Example 1, NCI-H358 cells bear the KRAS G12C mutation. The in vitro phagocytosis assays were performed by co-culturing M0 macrophage cells with INCUCYTE® PHRODO®-labeled NCI-H358 tumor cells. Briefly, prior to co-culture, NCI-H358 cells were pre-treated with AMG 510 at the concentrations of 0 μm, 0.1 μm, 1 μm, or 10 μm for 24 hours. The NCI-H358 cells were further incubated with M0 macrophage (at a ratio of 1:1) and 1 μg/ml TJC4 for 3-6 hours. The NCI-H358 cells were then subject to INCUCYTE® ZOOM Live-Cell Imaging System analysis, and the percentage of phagocytosed NCI-H358 was calculated.
Synergy of the combination of AMG 510 and TJC4 in inducing phagocytosis was calculated as: […]
An F value≥1.00 indicates a synergistic effect between AMG-510 and TJC4.

[3] = tested on: LS180 human colon adenocarcinoma cells (KRAS G12D); assay: In vitro phagocytosis of LS180 colon cancer cells by macrophages (flow cytometry); assay type: cell-based; settings: MRTX1133 100 nM, TJC4 0.5 μg/ml, 24 hours; co-culture 2 hours; combination compared to either agent alone, FIG. 5B
Description: LS180 human colon adenocarcinoma cells, which harbor the KRAS G12D mutation were incubated with (a) DMSO, (b) the KRAS G12D inhibitor MRTX1133 (100 nM), (c) anti-CD47 antibody TJC4 (0.5 μg/ml), or (d) MRTX1133 (100 nM)+TJC4 (0.5 μg/ml) for 24 hours and then labeled with 2.5 μM carboxyfluorescein succinimidyl ester (CFSE) for 10 minutes at 37° C. Macrophage cells, which were obtained by human THP-1 leukemia monocyte cells with lipopolysaccharide (LPS) for 24 hours, were cultured in a serum free medium for 2 hours and then added to 2×10^5 CFSE-labeled LS180 cells. The macrophages and the LS180 cells were co-cultured at 37° C. for 2 hours. Macrophages were then stained with an APC-labeled anti-F4/80 antibody, and CFSE+ F4/80+ cells were detected by flow cytometry (10,000 cells analyzed in each sample). The percentage of macrophage-phagocytosed LS180 cells was calculated by dividing the number of CFSE+ F4/80+ cells (see the top right quadrant, i.e., Q2, of each flow cytometry histogram in FIG. 5A) by the number CFSE+ cells (see the top left and right quadrants, i.e., Q1 and Q2, respectively) of each flow cytometry histogram in FIG. 5A). In other words, macrophage-phagocytosed LS180 cells (%)=[Q2/(Q1+Q2)]×100%.

[4] = tested on: LS180 human colon adenocarcinoma cells; assay: Apoptosis of LS180 cells (FITC-Annexin V / PI flow cytometry); assay type: cell-based; settings: MRTX1133 100 nM, TJC4 0.5 μg/ml, 24 hours; combination compared to either agent alone, FIG. 6A/6B
Description: LS180 human colon adenocarcinoma cells were incubated with (a) DMSO, (b) the KRAS G12D inhibitor MRTX1133 (100 nM), (c) anti-CD47 antibody TJC4 (0.5 μg/ml), or (d) MRTX1133 (100 nM)+TJC4 (0.5 μg/ml) for 24 hours and then labeled with fluorescein isothiocyanate (FITC)-Annexin V and propidium iodide (PI). Annexin V (or Annexin A5) is a member of the annexin family of intracellular proteins that binds to phosphatidylserine (PS) in a calcium-dependent manner. PS is normally only found on the intracellular leaflet of the plasma membrane in healthy cells, but during early apoptosis, membrane asymmetry is lost, and PS translocates to the external leaflet. FITC-labeled Annexin V can then be used to specifically target and identify apoptotic cells. PI a cell impermeable nucleic acid intercalating dye. Following staining, the cells were analyzed via flow cytometry.

[5] = tested on: human LS180 colon adenocarcinoma tumor xenografts; assay: In vivo anti-tumor efficacy in mice bearing LS180 colon adenocarcinoma xenografts (bioluminescence imaging); design: species or system BALB/c nude mice; settings: MRTX1133 20 mg/kg, TJC4 1 mg/kg, intraperitoneally twice a week for four weeks, FIG. 7B
Description: The anti-tumor efficacy of anti-CD47 antibody TJC4 in combination with the KRAS G12D inhibitor MRTZ1133 was assessed in mice bearing human LS180 colon adenocarcinoma tumor xenografts. Briefly, 5×10^5 LS180 cells were injected into the cecal walls of BALB/c nude mice. Tumors formed and grew stably after 2 weeks. Mice were given one of the following treatments for four weeks: (a) PBS (control); (b) TJC4 (1 mg/kg, intraperitoneally twice a week); (c) MRTX1133 (20 mg/kg, intraperitoneally twice a week); or (d) MRTX1133 (20 mg/kg, intraperitoneally twice a week)+TJC4 (1 mg/kg, intraperitoneally twice a week). Tumor growth was evaluated by Bioluminescence imaging (BLI) every week.

KRAS G12D mutant protein = KRAS G12D mutant protein (Homo sapiens, UniProt P01116, G12D); settings: Wang et al. (2022) J Med Chem; cited from earlier work

Molecule | tumor growth inhibition as compared to mice treated with PBS control [1] | TJC4-mediated phagocytosis of NCI-H358 by macrophages [2] | phagocytosis of LS180 cells by macrophages [3] | apoptosis of LS180 cells [4] | tumor growth (bioluminescence imaging) [5] | specificity to the KRAS G12D mutant protein relative to wild-type KRAS (KRAS G12D mutant protein)
C=CC(=O)N1CCN(c2nc(=O)n(-c3c(C)ccnc3C(C)C)c3nc(-c4c(O)cccc4F)c(F)cc23)[C@@H](C)C1 [AMG-510, 6-Fluoro-7-(2-fluoro-6-hydroxyphenyl)-(1M)-1-[4-methyl-2-(propan-2-yl)pyridin-3-yl]-4-[(2S)-2-methyl-4-(prop-2-enoyl)piperazin-1-yl]pyrido[2,3-d]pyrimidin-2(1H)-one] | did not demonstrate tumor growth inhibition | enhanced | – | – | – | –
C#Cc1c(F)ccc2cc(O)cc(-c3ncc4c(N5CC6CCC(C5)N6)nc(OC[C@@]56CCCN5C[C@H](F)C6)nc4c3F)c12 [MRTX1133] | – | – | increased | increased | inhibited tumor growth | more than 1000 times
B1 | did not demonstrate tumor growth inhibition | – | increased | increased | weak inhibitory effect | –
